Where two headings read alike, the source gives them in different places.
Tests used:
Type in all cases: in vivo
[1] = tested on: Musca domestica; experiment: Test Example 2: filter paper/sucrose bait test against housefly imagoes; conditions: read-out: rate of dead pests
Method: On the bottom of a polyethylene cup having a diameter of 5.5 cm, a filter paper having the same diameter was laid, and 0.7 ml of the above test solution was added dropwise on the filter paper, followed by putting 30 mg of sucrose on it uniformly as a bait. Ten female Musca domestica imagoes were set free in the polyethylene cup and covered it with a lid. After 24 hours, the number of surviving and dead Musca domestica was examined and the rate of dead pests was calculated.

[2] = tested on: Blattella germanica; experiment: Test Example 3: filter paper/sucrose bait test against German cockroach imagoes; conditions: for pest or weed control at 500 ppm: Blattella germanica, 144 h, read-out: rate of dead pests
Method: On the bottom of a polyethylene cup having a diameter of 5.5 cm, a filter paper having the same diameter was laid, and 0.7 ml of the above test solution was added dropwise on the filter paper, followed by putting 30 mg of sucrose on it uniformly as a bait. Two male Blattella germanica imagoes were set free in the polyethylene cup and covered it with a lid. After 6 days, the number of surviving and dead Blattella germanica was examined and the rate of dead pests was calculated.

[3] = tested on: Culex pipiens pallens; experiment: Test Example 4: mosquito larvae test in treated water; conditions: 24 h, read-out: rate of dead pests
Method: 0.7 ml of above test solution was added to 100 ml of ion exchanged water (active ingredient concentration: 3.5 ppm). Twenty last-instar larvae of Culex pipiens pallens were set free in the solution. After one day, the number of surviving and dead Culex pipiens pallens was examined and the rate of dead pests was calculated.

[4] = 500 ppm test solution, 0.7 ml on filter paper with 30 mg sucrose, ten female imagoes, after 24 hours
[5] = 500 ppm test solution, 0.7 ml on filter paper with 30 mg sucrose, two male imagoes, after 6 days
[6] = active ingredient concentration 3.5 ppm in water, twenty last-instar larvae, after one day

| Compound | pest or weed control at 500 ppm [1, 4] [%] | pest or weed control at 500 ppm [2, 5] [%] | pest or weed control at 3.5 ppm [3, 6] [%] | also measured |
| --- | --- | --- | --- | --- |
| CC(C)NC(=O)C(C)(CCC(F)(F)C(F)(F)F)S(=O)(=O)CCC(F)(F)F (stereo not drawn) [(41)] | ≥ 70 | 100 | ≥ 90 | – |
| COC(=O)C(Cl)(CCC(F)(F)C(F)(F)C(F)(F)F)S(=O)(=O)CCC(F)(F)F (stereo not drawn) [(83)] | – | – | – | pest or weed control at 3.5 ppm [3]: ≥ 90% |
| COC(=O)C(F)(CCC(F)(F)C(F)(F)F)S(=O)(=O)CCC(F)(F)F (stereo not drawn) [(29)] | ≥ 70 | 100 | ≥ 90 | – |
| COC(=O)C(Br)(CCC(F)(F)C(F)(F)F)S(=O)(=O)CCC(F)(F)F (stereo not drawn) [(65)] | ≥ 70 | 100 | ≥ 90 | – |
| COC(=O)C(Cl)(CCCC(F)(F)C(F)(F)F)S(=O)(=O)CCC(F)(F)F (stereo not drawn) [(102)] | ≥ 70 | 100 | ≥ 90 | – |
| COC(=O)C(CCC(F)(F)C(F)(F)C(F)(F)F)S(=O)(=O)CCC(F)(F)C(F)(F)F (stereo not drawn) [(95)] | – | – | – | pest or weed control at 500 ppm ([1]; 24 h): ≥ 70% |
| COC(=O)C(Cl)(CCC(F)(F)C(F)(F)C(F)(F)C(F)(F)F)S(=O)(=O)CCC(F)(F)F (stereo not drawn) [(86)] | – | – | – | pest or weed control at 500 ppm ([1]; 24 h): ≥ 70%; pest or weed control at 500 ppm [2]: 100%; pest or weed control at 3.5 ppm [3]: ≥ 90% |
| NC(=O)C(Cl)(CCCCC(F)(F)F)S(=O)(=O)CCC(F)(F)F (stereo not drawn) [(100)] | ≥ 70 | 100 | ≥ 90 | – |
| NC(=O)C(Cl)(CCC(F)(F)C(F)(F)C(F)(F)F)S(=O)(=O)CCC(F)(F)F (stereo not drawn) [(84)] | – | – | – | pest or weed control at 500 ppm ([1]; 24 h): ≥ 70%; pest or weed control at 500 ppm [2]: 100%; pest or weed control at 3.5 ppm [3]: ≥ 90% |
| N#CC(CCC(F)(F)C(F)(F)C(F)(F)F)S(=O)(=O)CCC(F)(F)F (stereo not drawn) [(5)] | – | – | – | pest or weed control at 500 ppm ([1]; 24 h): ≥ 70%; pest or weed control at 500 ppm [2]: 100%; pest or weed control at 3.5 ppm [3]: ≥ 90% |
| COC(=O)C(Cl)(CCCC(F)(F)F)S(=O)(=O)CCC(F)(F)F (stereo not drawn) [(79)] | ≥ 70 | 100 | ≥ 90 | – |
| N#CC(CCC(F)(F)C(F)(F)F)S(=O)(=O)CCC(F)(F)C(F)(F)C(F)(F)F (stereo not drawn) [(10)] | – | – | – | pest or weed control at 500 ppm ([1]; 24 h): ≥ 70%; pest or weed control at 500 ppm [2]: 100%; pest or weed control at 3.5 ppm [3]: ≥ 90% |
| COC(=O)C(F)(CCC(F)(F)C(F)(F)F)S(=O)(=O)CCC(F)(F)C(F)(F)C(F)(F)F (stereo not drawn) [(66)] | – | – | – | pest or weed control at 500 ppm ([1]; 24 h): ≥ 70% |
| COC(=O)C(Cl)(CCC(F)(F)C(F)(F)F)S(=O)(=O)CCC(F)(F)F (stereo not drawn) [(58)] | ≥ 70 | 100 | ≥ 90 | – |
| COC(=O)C(CCC(F)(F)C(F)(F)C(F)(F)F)S(=O)(=O)CCC(F)(F)F (stereo not drawn) [(82)] | – | – | – | pest or weed control at 500 ppm ([1]; 24 h): ≥ 70%; pest or weed control at 3.5 ppm [3]: ≥ 90% |
| NC(=O)C(Cl)(CCC(F)(F)F)S(=O)(=O)CCC(F)(F)C(F)(F)F (stereo not drawn) [(94)] | ≥ 70 | 100 | ≥ 90 | – |
| COC(=O)C(CCC(F)(F)C(F)(F)F)S(=O)(=O)CCC(F)(F)C(F)(F)F (stereo not drawn) [(24)] | – | – | ≥ 90 | – |
| COC(=O)C(CCC(F)(F)C(F)(F)F)S(=O)(=O)CCC(F)(F)C(F)(F)C(F)(F)F (stereo not drawn) [(42)] | – | – | – | pest or weed control at 3.5 ppm [3]: ≥ 90% |
| COC(=O)C(Cl)(CCCCC(F)(F)F)S(=O)(=O)CCC(F)(F)F (stereo not drawn) [(99)] | ≥ 70 | – | – | – |
| CCCC(C#N)(CCC(F)(F)C(F)(F)F)S(=O)(=O)CCC(F)(F)F (stereo not drawn) [(16)] | ≥ 70 | 100 | ≥ 90 | – |
| CC(C#N)(CCC(F)(F)C(F)(F)F)S(=O)(=O)CCC(F)(F)C(F)(F)F (stereo not drawn) [(13)] | ≥ 70 | 100 | ≥ 90 | – |
| CCC(C#N)(CCC(F)(F)C(F)(F)F)S(=O)(=O)CCC(F)(F)F (stereo not drawn) [(15)] | ≥ 70 | 100 | ≥ 90 | – |
| NC(=O)C(F)(CCC(F)(F)C(F)(F)F)S(=O)(=O)CCC(F)(F)C(F)(F)F (stereo not drawn) [(73)] | ≥ 70 | 100 | ≥ 90 | – |

| Compound | pest or weed control at 500 ppm [1, 4] [%] | pest or weed control at 500 ppm [2, 5] [%] | pest or weed control at 3.5 ppm [3, 6] [%] | also measured |
| --- | --- | --- | --- | --- |
| N#CC(CCC(F)(F)F)S(=O)(=O)CCC(F)(F)F (stereo not drawn) [(1)] | ≥ 70 | 100 | ≥ 90 | – |
| COC(=O)C(CCCC(F)(F)C(F)(F)F)S(=O)(=O)CCC(F)(F)F (stereo not drawn) [(101)] | ≥ 70 | 100 | – | – |
| N#CC(CCC(F)(F)C(F)(F)F)SCCC(F)(F)F (stereo not drawn) [(47)] | – | – | – | rate of dead pests [2, 5]: 100% |
| COC(=O)C(Cl)(CCC(F)(F)C(F)(F)F)S(=O)(=O)CCC(F)(F)C(F)(F)F (stereo not drawn) [(88)] | ≥ 70 | 100 | ≥ 90 | – |
| COC(=O)C(Cl)(CCC(F)(F)F)S(=O)(=O)CCC(F)(F)C(F)(F)F (stereo not drawn) [(93)] | ≥ 70 | 100 | ≥ 90 | – |
| NC(=O)C(Cl)(CCCC(F)(F)C(F)(F)F)S(=O)(=O)CCC(F)(F)F (stereo not drawn) [(103)] | ≥ 70 | 100 | ≥ 90 | – |
| COC(=O)C(CCC(F)(F)C(F)(F)F)S(=O)(=O)CCC(F)(F)F (stereo not drawn) [(23)] | ≥ 70 | 100 | ≥ 90 | – |
| NC(=O)C(Cl)(CCC(F)(F)C(F)(F)C(F)(F)F)S(=O)(=O)CCC(F)(F)C(F)(F)F (stereo not drawn) [(97)] | – | – | – | pest or weed control at 500 ppm ([1]; 24 h): ≥ 70%; pest or weed control at 500 ppm [2]: 100%; pest or weed control at 3.5 ppm [3]: ≥ 90% |
| CN(C)C(=O)C(C)(CCC(F)(F)C(F)(F)F)S(=O)(=O)CCC(F)(F)F (stereo not drawn) [(36)] | ≥ 70 | 100 | ≥ 90 | – |
| N#CC(CCC(F)(F)C(F)(F)C(F)(F)C(F)(F)F)S(=O)(=O)CCC(F)(F)F (stereo not drawn) [(7)] | – | – | – | pest or weed control at 500 ppm [2]: 100%; pest or weed control at 3.5 ppm [3]: ≥ 90% |
| NC(=O)C(F)(CCC(F)(F)C(F)(F)F)S(=O)(=O)CCC(F)(F)F (stereo not drawn) [(64)] | ≥ 70 | 100 | – | – |
| COC(=O)C(CCC(F)(F)C(F)(F)C(F)(F)F)S(=O)(=O)CCC(F)(F)C(F)(F)F (stereo not drawn) [(51)] | – | – | – | pest or weed control at 3.5 ppm [3]: ≥ 90% |
| COC(=O)C(C)(CCCC(F)(F)F)S(=O)(=O)CCC(F)(F)F (stereo not drawn) [(44)] | ≥ 70 | 100 | – | – |
| COC(=O)C(CCC(F)(F)F)S(=O)(=O)CCC(F)(F)F (stereo not drawn) [(76)] | – | – | ≥ 90 | – |
| NC(=O)C(CCC(F)(F)C(F)(F)C(F)(F)F)S(=O)(=O)CCC(F)(F)C(F)(F)F (stereo not drawn) [(55)] | – | – | – | pest or weed control at 500 ppm ([1]; 24 h): ≥ 70%; pest or weed control at 500 ppm [2]: 100% |
| COC(=O)C(CCCC(F)(F)F)S(=O)(=O)CCC(F)(F)F (stereo not drawn) [(22)] | ≥ 70 | – | ≥ 90 | – |
| CC(C)(C)OC(=O)C(CCC(F)(F)C(F)(F)F)S(=O)(=O)CCC(F)(F)F (stereo not drawn) [(25)] | ≥ 70 | – | ≥ 90 | – |
| CCCCC(C#N)(CCC(F)(F)C(F)(F)F)S(=O)(=O)CCC(F)(F)F (stereo not drawn) [(18)] | ≥ 70 | – | ≥ 90 | – |
| COC(=O)C(CCCC(F)(F)F)S(=O)(=O)CCC(F)(F)F (stereo not drawn) [(78)] | – | 100 | – | – |
| COC(=O)C(C)(CCC(F)(F)C(F)(F)F)S(=O)(=O)CCC(F)(F)C(F)(F)C(F)(F)F (stereo not drawn) [(43)] | – | – | – | pest or weed control at 500 ppm ([1]; 24 h): ≥ 70% |
| CCCCCC(C#N)(CCC(F)(F)C(F)(F)F)S(=O)(=O)CCC(F)(F)F (stereo not drawn) [(19)] | ≥ 70 | – | ≥ 90 | – |
| CCCC(CCC(F)(F)C(F)(F)F)(C(=O)OC)S(=O)(=O)CCC(F)(F)F (stereo not drawn) [(28)] | ≥ 70 | – | – | – |
| COC(=O)C(CCC(F)(F)F)S(=O)(=O)CCC(F)(F)C(F)(F)F (stereo not drawn) [(92)] | – | – | ≥ 90 | – |

Source: patent publication US8017656B2, “Organic sulfur compounds and use thereof” (Sumitomo Chemical Company, Limited, priority 2005, dated 2011)
